Laboratory results from ChEMBL document CHEMBL5465560, “Selectivity Literature for EUbOPEN Chemogenomic Library” (2024).

Key:
[1] = molecular target: T1, Phosphatidylinositol 4,5-bisphosphate 3-kinase catalytic subunit delta isoform (Homo sapiens) (UniProt O00329); assay: Selectivity interaction (KinomeScan (DiscoverX)) EUB0000666a PIK3CD; conditions: at 10 µM
T1 sequence (whole entry): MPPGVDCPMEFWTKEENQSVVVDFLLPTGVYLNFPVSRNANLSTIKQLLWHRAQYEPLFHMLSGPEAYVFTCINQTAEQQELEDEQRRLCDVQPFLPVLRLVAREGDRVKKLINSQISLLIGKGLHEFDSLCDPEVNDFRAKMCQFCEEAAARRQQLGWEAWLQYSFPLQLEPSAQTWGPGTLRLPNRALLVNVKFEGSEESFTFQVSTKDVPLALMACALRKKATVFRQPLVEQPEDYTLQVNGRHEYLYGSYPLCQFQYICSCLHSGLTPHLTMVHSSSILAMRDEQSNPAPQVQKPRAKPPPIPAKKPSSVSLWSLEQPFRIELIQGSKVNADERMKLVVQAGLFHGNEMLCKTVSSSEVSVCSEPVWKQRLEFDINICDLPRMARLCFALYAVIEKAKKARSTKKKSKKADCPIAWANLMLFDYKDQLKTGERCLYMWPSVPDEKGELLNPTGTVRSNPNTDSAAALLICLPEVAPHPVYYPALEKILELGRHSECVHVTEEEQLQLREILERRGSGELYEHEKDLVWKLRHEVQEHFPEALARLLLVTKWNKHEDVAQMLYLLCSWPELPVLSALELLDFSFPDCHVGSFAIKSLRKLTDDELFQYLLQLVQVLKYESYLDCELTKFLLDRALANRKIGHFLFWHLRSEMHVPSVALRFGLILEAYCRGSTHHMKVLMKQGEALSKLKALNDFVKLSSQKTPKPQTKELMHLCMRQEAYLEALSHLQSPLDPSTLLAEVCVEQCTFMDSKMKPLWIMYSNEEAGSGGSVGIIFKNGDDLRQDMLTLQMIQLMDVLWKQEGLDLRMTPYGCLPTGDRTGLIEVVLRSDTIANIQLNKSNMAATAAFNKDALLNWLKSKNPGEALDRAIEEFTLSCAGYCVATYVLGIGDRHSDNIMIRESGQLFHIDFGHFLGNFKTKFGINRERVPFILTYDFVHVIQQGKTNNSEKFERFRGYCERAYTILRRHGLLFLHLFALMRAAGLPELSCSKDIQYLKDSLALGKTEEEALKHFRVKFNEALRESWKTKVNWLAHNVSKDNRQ

[2] = molecular target: Mitogen-activated protein kinase kinase kinase 11 (Homo sapiens) (UniProt Q16584); assay: Selectivity interaction (KinomeScan (DiscoverX)) EUB0000607a MAP3K11; conditions: at 10 µM
Mitogen-activated protein kinase kinase kinase 11 (Homo sapiens), sequence (Q16584 whole entry, looked up): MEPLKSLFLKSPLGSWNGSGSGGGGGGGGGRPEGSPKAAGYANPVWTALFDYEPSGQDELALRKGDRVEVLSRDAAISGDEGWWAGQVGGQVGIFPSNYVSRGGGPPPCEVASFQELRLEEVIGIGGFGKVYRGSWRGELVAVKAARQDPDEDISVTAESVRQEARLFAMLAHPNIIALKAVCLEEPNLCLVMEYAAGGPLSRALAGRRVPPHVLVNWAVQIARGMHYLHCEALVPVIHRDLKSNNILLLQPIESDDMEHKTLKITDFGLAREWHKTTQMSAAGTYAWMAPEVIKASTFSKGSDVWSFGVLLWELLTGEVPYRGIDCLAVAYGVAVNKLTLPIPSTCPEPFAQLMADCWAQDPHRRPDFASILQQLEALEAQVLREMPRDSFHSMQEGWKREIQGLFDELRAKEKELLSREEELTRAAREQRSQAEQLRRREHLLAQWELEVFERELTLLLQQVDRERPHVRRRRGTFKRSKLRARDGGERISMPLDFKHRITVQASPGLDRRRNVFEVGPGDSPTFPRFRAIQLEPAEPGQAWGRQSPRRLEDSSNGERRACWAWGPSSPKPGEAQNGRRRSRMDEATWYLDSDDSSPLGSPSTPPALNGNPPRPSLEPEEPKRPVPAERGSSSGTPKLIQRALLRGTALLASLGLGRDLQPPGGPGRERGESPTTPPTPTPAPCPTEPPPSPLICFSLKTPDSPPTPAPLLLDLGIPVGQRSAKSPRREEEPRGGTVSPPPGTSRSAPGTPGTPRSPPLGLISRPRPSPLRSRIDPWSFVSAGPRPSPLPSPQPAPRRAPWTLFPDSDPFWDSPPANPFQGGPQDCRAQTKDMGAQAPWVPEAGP

[3] = molecular target: T2, Serine/threonine-protein kinase tousled-like 1 (Homo sapiens) (UniProt Q9UKI8); assay: Selectivity interaction (ActivX KiNativ screen (kinase selectivity in THP-1 cell lysates)) EUB0000639a TLK1; assay type: subcellular; conditions: lysate
T2 sequence (whole entry): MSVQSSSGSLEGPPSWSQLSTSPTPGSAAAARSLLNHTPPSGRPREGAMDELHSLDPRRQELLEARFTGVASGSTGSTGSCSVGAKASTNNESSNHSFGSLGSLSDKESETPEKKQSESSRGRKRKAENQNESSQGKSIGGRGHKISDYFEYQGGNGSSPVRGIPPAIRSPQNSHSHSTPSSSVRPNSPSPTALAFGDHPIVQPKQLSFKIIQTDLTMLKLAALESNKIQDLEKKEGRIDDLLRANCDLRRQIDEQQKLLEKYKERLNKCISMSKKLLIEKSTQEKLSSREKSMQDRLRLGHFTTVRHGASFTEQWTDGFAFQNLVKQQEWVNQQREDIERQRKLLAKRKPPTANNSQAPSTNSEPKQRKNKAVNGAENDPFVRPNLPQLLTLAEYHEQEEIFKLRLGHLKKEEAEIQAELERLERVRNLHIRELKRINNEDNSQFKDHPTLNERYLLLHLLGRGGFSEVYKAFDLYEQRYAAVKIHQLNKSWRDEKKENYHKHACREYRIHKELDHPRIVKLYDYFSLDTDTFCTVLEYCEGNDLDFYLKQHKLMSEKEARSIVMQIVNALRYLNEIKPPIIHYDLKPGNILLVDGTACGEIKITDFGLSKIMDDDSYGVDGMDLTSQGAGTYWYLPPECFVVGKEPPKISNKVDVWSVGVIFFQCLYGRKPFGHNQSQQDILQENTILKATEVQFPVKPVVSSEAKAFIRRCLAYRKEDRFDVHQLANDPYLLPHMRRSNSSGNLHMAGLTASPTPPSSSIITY

[4] = molecular target: Homeodomain-interacting protein kinase 3 (Homo sapiens, UniProt Q9H422); assay: Selectivity interaction (Kinase panel (Invitrogen)) EUB0000639a HIPK3; conditions: at 200 nM
Homeodomain-interacting protein kinase 3, sequence (Q9H422 whole entry, looked up): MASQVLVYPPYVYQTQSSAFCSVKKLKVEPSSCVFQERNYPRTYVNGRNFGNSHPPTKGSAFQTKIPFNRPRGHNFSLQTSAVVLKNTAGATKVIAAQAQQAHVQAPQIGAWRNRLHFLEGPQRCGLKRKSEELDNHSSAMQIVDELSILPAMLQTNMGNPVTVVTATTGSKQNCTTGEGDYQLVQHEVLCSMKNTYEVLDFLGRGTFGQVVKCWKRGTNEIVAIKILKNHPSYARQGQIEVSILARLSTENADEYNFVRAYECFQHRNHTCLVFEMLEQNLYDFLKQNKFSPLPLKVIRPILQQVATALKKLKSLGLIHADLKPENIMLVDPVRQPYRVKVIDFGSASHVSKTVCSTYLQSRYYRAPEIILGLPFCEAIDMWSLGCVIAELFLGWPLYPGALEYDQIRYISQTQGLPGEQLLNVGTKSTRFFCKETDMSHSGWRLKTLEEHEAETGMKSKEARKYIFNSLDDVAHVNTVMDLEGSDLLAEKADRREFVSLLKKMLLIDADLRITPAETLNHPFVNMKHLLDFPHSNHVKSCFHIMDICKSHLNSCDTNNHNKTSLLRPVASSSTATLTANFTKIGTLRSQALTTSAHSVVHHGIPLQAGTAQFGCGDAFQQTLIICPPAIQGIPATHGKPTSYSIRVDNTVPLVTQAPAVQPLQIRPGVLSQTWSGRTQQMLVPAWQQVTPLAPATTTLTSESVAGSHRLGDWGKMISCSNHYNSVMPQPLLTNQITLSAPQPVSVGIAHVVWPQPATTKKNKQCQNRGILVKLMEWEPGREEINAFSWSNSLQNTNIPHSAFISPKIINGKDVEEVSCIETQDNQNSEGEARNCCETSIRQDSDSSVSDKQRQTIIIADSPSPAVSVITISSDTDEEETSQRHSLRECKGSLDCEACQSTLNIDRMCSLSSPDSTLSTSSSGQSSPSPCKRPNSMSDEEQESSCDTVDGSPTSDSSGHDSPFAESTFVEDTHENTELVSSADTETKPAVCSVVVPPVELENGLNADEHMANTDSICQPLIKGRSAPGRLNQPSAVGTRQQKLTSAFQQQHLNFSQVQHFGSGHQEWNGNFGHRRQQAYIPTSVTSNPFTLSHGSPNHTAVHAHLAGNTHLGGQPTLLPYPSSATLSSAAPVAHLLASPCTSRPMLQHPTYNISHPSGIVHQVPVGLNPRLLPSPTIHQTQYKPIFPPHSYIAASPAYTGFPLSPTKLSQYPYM

[5] = molecular target: T3, Myosin light chain kinase family member 4 (Homo sapiens) (UniProt Q86YV6); assay: Selectivity interaction (KinomeScan (DiscoverX)) EUB0000092b MYLK4; conditions: at 10 µM
T3 sequence (whole entry): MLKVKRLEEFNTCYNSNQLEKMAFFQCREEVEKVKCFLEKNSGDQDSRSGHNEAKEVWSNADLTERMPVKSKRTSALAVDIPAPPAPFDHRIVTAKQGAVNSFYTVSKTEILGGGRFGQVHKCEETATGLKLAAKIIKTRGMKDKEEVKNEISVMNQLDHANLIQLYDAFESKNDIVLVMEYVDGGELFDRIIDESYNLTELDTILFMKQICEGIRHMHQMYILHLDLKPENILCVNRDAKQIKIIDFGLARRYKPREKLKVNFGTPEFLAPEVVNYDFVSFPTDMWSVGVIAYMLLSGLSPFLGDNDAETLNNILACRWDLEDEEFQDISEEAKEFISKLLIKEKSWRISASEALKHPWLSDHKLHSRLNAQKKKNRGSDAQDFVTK

O=C(NOC[C@H](O)CO)c1ccc(F)c(F)c1Nc1ccc(I)cc1F
% of control [1]: 40%

CNC(=O)Nc1ccc(-c2nc(N3CC4CCC(C3)O4)c3cnn(C4CCC5(CC4)OCCO5)c3n2)cc1
% of control [2]: 100%

CC[C@@H]1[C@H](F)C(=O)N[C@@H]1COc1nccc2cc(C(N)=O)c(OC)cc12 [ZIMLOVISERTIB]
% of inhibition ([3]; at 0.01 µM): 10.2% | % of inhibition ([3]; at 0.04 µM): 21.8% | % of inhibition ([3]; at 0.2 µM): 4.8% | % of inhibition ([3]; at 1 µM): 54% | % of inhibition ([3]; at 5 µM): 62.2% | % of inhibition [4]: 5.1%

CCC(=O)N1CCN(c2ccc(-n3c(=O)ccc4cnc5ccc(-c6cnc7ccccc7c6)cc5c43)cc2C(F)(F)F)CC1
% of control [5]: 83%
